The values below come from ChEMBL document CHEMBL1157982, “Isolation, identification, and enantioselective synthesis of octane-1,3,7-triol: determination of its absolute configuration” (J Nat Prod, 1999).

Each structure is given as a SMILES string.

The test system of data set [1] is Bacillus subtilis. The data set is described as follows: Antibacterial activity against Bacillus subtilis at 5 umol/L. The format is functional.
Data set [2] can be described thus: Toxicity in rat. The conditions noted are these: in vivo. The format is organism-based.

As usually defined, the LD50 is the dose expected to kill half of the subjects tested. A low value points to greater toxicity.

`CCCCC[C@@H](O)CCO` came in with an Activity in data set [1] of 50%. The LD50 in data set [2] amounted to 20000 mg/kg.
